Experiments:
Test in all cases: relative viability (nuclei count vs DMSO), 5 days (fraction); higher = more cells survive
BEN = test system: BEN
In short: (§1)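 Values are medians from duplicate plates. Each reflects relative viability, defined as the nuclei count of treated wells over that of vehicle wells. Lung cancer cell lines in 1536-well plates were pin-tool dosed one day after seeding with one drug alone or with a fixed anchor-drug dose plus five library-drug doses (not always all listed) in √10 steps, then fixed, stained and imaged at 4× after 5 days.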

EKVX = test system: EKVX
In short: as §1

NCI-H1792 = test system: NCI-H1792
In short: as §1

LCLC-97TM1 = test system: LCLC-97TM1
In short: as §1

LOU-NH91 = test system: LOU-NH91
In short: as §1

NCI-H727 = test system: NCI-H727
In short: as §1

SK-MES-1 = test system: SK-MES-1
In short: as §1

HCC-827 = test system: HCC-827
In short: as §1

RERF-LC-KJ = test system: RERF-LC-KJ
In short: as §1

LK-2 = test system: LK-2
In short: as §1

EMC-BAC-2 = test system: EMC-BAC-2
In short: as §1

COR-L 105 = test system: COR-L 105
In short: as §1

SW 900 = test system: SW 900
In short: as §1

NCI-H358 = test system: NCI-H358
In short: as §1

NCI-H1944 = test system: NCI-H1944
In short: as §1

NCI-H2126 = test system: NCI-H2126
In short: as §1

EPLC-272H = test system: EPLC-272H
In short: as §1

NCI-H1650 = test system: NCI-H1650
In short: as §1

NCI-H2087 = test system: NCI-H2087
In short: as §1

NCI-H1734 = test system: NCI-H1734
In short: as §1

SW 1573 = test system: SW 1573
In short: as §1

NCI-H522 = test system: NCI-H522
In short: as §1

HCC-78 = test system: HCC-78
In short: as §1

LU99A = test system: LU99A
In short: as §1

**Q.** What does the source list for CCCCCCCCCCCC1=C(O)C(=O)C=C(O)C1=O [Embelin] + CC(=O)Nc1cccc(-n2c(=O)n(C3CC3)c(=O)c3c(Nc4ccc(I)cc4F)n(C)c(=O)c(C)c32)c1 [Trametinib] (partner 0.02 µM)?
**A.** relative viability (BEN; first compound 0.08 µM): 1.11; relative viability (BEN; first compound 0.8 µM): 1.16; relative viability (BEN; first compound 2.53 µM): 0.966; relative viability (BEN; first compound 8 µM): 0.865; relative viability (EKVX; first compound 0.08 µM): 0.328; relative viability (EKVX; first compound 0.8 µM): 0.472; relative viability (EKVX; first compound 2.53 µM): 0.275; relative viability (EKVX; first compound 8 µM): 0.429; relative viability (NCI-H1792; first compound 0.08 µM): 0.452; relative viability (NCI-H1792; first compound 0.8 µM): 0.539; relative viability (NCI-H1792; first compound 2.53 µM): 0.532; relative viability (NCI-H1792; first compound 8 µM): 0.459; relative viability (LCLC-97TM1; first compound 0.08 µM): 0.201; relative viability (LCLC-97TM1; first compound 0.8 µM): 0.18; relative viability (LCLC-97TM1; first compound 2.53 µM): 0.232; relative viability (LCLC-97TM1; first compound 8 µM): 0.184; relative viability (LOU-NH91; first compound 0.08 µM): 0.785; relative viability (LOU-NH91; first compound 0.8 µM): 0.831; relative viability (LOU-NH91; first compound 2.53 µM): 0.828; relative viability (LOU-NH91; first compound 8 µM): 0.805; relative viability (NCI-H727; first compound 0.08 µM): 0.4; relative viability (NCI-H727; first compound 0.8 µM): 0.394; relative viability (NCI-H727; first compound 2.53 µM): 0.39; relative viability (NCI-H727; first compound 8 µM): 0.423; relative viability (SK-MES-1; first compound 0.08 µM): 0.599; relative viability (SK-MES-1; first compound 0.8 µM): 0.588; relative viability (SK-MES-1; first compound 2.53 µM): 0.591; relative viability (SK-MES-1; first compound 8 µM): 0.518; relative viability (HCC-827; first compound 0.08 µM): 0.535; relative viability (HCC-827; first compound 0.8 µM): 0.588; relative viability (HCC-827; first compound 2.53 µM): 0.506; relative viability (HCC-827; first compound 8 µM): 0.487; relative viability (RERF-LC-KJ; first compound 0.08 µM): 0.871; relative viability (RERF-LC-KJ; first compound 0.8 µM): 0.977; relative viability (RERF-LC-KJ; first compound 2.53 µM): 0.896; relative viability (RERF-LC-KJ; first compound 8 µM): 0.853; relative viability (LK-2; first compound 0.08 µM): 0.793; relative viability (LK-2; first compound 0.8 µM): 1.02; relative viability (LK-2; first compound 2.53 µM): 0.945; relative viability (LK-2; first compound 8 µM): 0.954; relative viability (EMC-BAC-2; first compound 0.08 µM): 0.845; relative viability (EMC-BAC-2; first compound 0.8 µM): 1.08; relative viability (EMC-BAC-2; first compound 2.53 µM): 0.883; relative viability (EMC-BAC-2; first compound 8 µM): 0.913; relative viability (COR-L 105; first compound 0.08 µM): 0.462; relative viability (COR-L 105; first compound 0.8 µM): 0.458; relative viability (COR-L 105; first compound 2.53 µM): 0.464; relative viability (COR-L 105; first compound 8 µM): 0.445; relative viability (SW 900; first compound 0.08 µM): 0.779; relative viability (SW 900; first compound 0.8 µM): 0.962; relative viability (SW 900; first compound 2.53 µM): 0.781; relative viability (SW 900; first compound 8 µM): 1.15; relative viability (NCI-H358; first compound 0.08 µM): 0.137; relative viability (NCI-H358; first compound 0.8 µM): 0.154; relative viability (NCI-H358; first compound 2.53 µM): 0.127; relative viability (NCI-H358; first compound 8 µM): 0.14; relative viability (NCI-H1944; first compound 0.08 µM): 0.404; relative viability (NCI-H1944; first compound 0.8 µM): 0.436; relative viability (NCI-H1944; first compound 2.53 µM): 0.446; relative viability (NCI-H1944; first compound 8 µM): 0.428; relative viability (NCI-H2126; first compound 0.08 µM): 0.495; relative viability (NCI-H2126; first compound 0.8 µM): 0.548; relative viability (NCI-H2126; first compound 2.53 µM): 0.553; relative viability (NCI-H2126; first compound 8 µM): 0.546; relative viability (EPLC-272H; first compound 0.08 µM): 0.315; relative viability (EPLC-272H; first compound 0.8 µM): 0.282; relative viability (EPLC-272H; first compound 2.53 µM): 0.296; relative viability (EPLC-272H; first compound 8 µM): 0.253; relative viability (NCI-H1650; first compound 0.08 µM): 0.713; relative viability (NCI-H1650; first compound 0.8 µM): 0.703; relative viability (NCI-H1650; first compound 2.53 µM): 0.675; relative viability (NCI-H1650; first compound 8 µM): 0.703; relative viability (NCI-H2087; first compound 0.08 µM): 0.147; relative viability (NCI-H2087; first compound 0.8 µM): 0.225; relative viability (NCI-H2087; first compound 2.53 µM): 0.233; relative viability (NCI-H2087; first compound 8 µM): 0.182; relative viability (NCI-H1734; first compound 0.08 µM): 0.686; relative viability (NCI-H1734; first compound 0.8 µM): 0.789; relative viability (NCI-H1734; first compound 2.53 µM): 0.777; relative viability (NCI-H1734; first compound 8 µM): 0.689; relative viability (SW 1573; first compound 0.08 µM): 0.604; relative viability (SW 1573; first compound 0.8 µM): 0.636; relative viability (SW 1573; first compound 2.53 µM): 0.625; relative viability (SW 1573; first compound 8 µM): 0.603; relative viability (NCI-H522; first compound 0.08 µM): 0.637; relative viability (NCI-H522; first compound 0.8 µM): 0.817; relative viability (NCI-H522; first compound 2.53 µM): 0.719; relative viability (NCI-H522; first compound 8 µM): 0.765; relative viability (HCC-78; first compound 0.08 µM): 0.834; relative viability (HCC-78; first compound 0.8 µM): 0.831; relative viability (HCC-78; first compound 2.53 µM): 0.752; relative viability (HCC-78; first compound 8 µM): 0.696; relative viability (LU99A; first compound 0.08 µM): 0.631; relative viability (LU99A; first compound 0.8 µM): 0.596; relative viability (LU99A; first compound 2.53 µM): 0.561; relative viability (LU99A; first compound 8 µM): 0.526

From the supplement of paper PMC10307832
